This note sets out measurements from ChEMBL document CHEMBL4406879, “A mouse model-based screening platform for the identification of immune activating compounds such as natural products for novel cancer immunotherapies” (Bioorg Med Chem, 2019).

The test system of data set [1] is Bone marrow cell. In words: Cytotoxicity against M-CSF-cultured mouse macrophage-rich bone marrow cells assessed as cell viability at 1 to 10 uM incubated for 24 hrs by MTT assay. The class given is cell-based.
The subject of data set [2] is Dendritic cell. In words: Immunostimulatory activity in GM-CSF-cultured bone marrow-derived dendritic cells isolated from get40 cytokine reporter mouse model assessed as induction of IL12p40 production at 0.1 to 10 uM incubated for 16 hrs in presence of LPS by flow cytometry relative to control. The class given is functional.
Data set [3] has as its system Bone marrow cell. In words: Cytotoxicity against GM-CSF-cultured mouse cDC-rich bone marrow cells assessed as cell viability at 1 to 10 uM incubated for 24 hrs by MTT assay. The format is cell-based. For orientation: Formazan colour is commonly taken as a measure of viable cells.
Data set [4] deals with Dendritic cell. Kind of data set: Immunostimulatory activity in GM-CSF-cultured bone marrow-derived dendritic cells isolated from get40 cytokine reporter mouse model assessed as induction of IL12p40 production at 0.1 to 10 uM incubated for 16 hrs in presence of CpG 2216 by flow cytometry relative to control. The class given is functional. On the technique in general: In flow cytometry, cells or beads pass a laser one at a time.

Another data set concerns Ramos. In words: Cytotoxicity against human Ramos cells. The class given is functional, cell-based.
The next data set has as its system Jurkat. Kind of data set: Cytotoxicity against human Jurkat cells. The format is functional, cell-based.
Data set [5] concerns Bone marrow cell. In words: Cytotoxicity against Flt3L-cultured mouse pDC-rich bone marrow cells assessed as cell viability at 1 to 10 uM incubated for 24 hrs by MTT assay. The format is cell-based.
For data set [6], the species on record is Mus musculus. Kind of data set: Immunostimulatory activity in CD4-positive T cells isolated from OVA-specific OT-II TCR transgenic mouse model assessed as T cell activation by measuring increase in IL-2 production at 10 uM compound incubated with GM-CSF cultured mouse bone marrow cells for 24 hrs followed by addition of isolated CD4+ T cells and further incubation for 5 days by ELISA. The class given is functional, cell-based.

In data set [7] the test system is Dendritic cell. Kind of data set: Immunostimulatory activity in GM-CSF-cultured bone marrow-derived dendritic cells isolated from get40 cytokine reporter mouse model assessed as induction of IL12p40 production at 0.1 to 10 uM incubated for 16 hrs by flow cytometry relative to control. The class given is functional.
The subject of data set [8] is Mycobacterium tuberculosis. In words: Antibacterial activity against Mycobacterium tuberculosis. The format is functional, organism-based.
For data set [9], the species on record is Mus musculus. Kind of data set: Immunostimulatory activity in CD4-positive T cells isolated from OVA-specific OT-II TCR transgenic mouse model assessed as T cell activation by measuring increase in IL-2 production at 1 uM compound incubated with GM-CSF cultured mouse bone marrow cells in presence of CpG 2216 for 24 hrs followed by addition of isolated CD4+ T cells and further incubation for 5 days by ELISA. The format is functional, cell-based.

Calls of active or inactive are those of the source. The calls are words filed in the database; no cut-off is given here.

Take `[O-][n+]1ccc2c([nH]c3ccccc32)c1C1=C[C@@]2(O)CC/C=C\CCCCN3CC[C@@H]1[C@]1(CC/C=C\CCCCN[C@H]12)C3`: the Activity entry in the data set with Bone marrow cell [1], in the data set on Bone marrow cell [3] and with Bone marrow cell [5] was “Non-Toxic” throughout. Also, the “fold change (FC)” value in the data set with Dendritic cell [2], with Dendritic cell [4] and with Dendritic cell [7] was 2 throughout. Besides, the result (in the data set on Ramos; in the data set on Jurkat; in data set [8]) was Active. In addition, in the data set listed under Mus musculus [6], the outcome was inactive.

Take `C=C1[C@@H](C)[C@H]2[C@H](Cc3ccccc3)NC(=O)[C@]23[C@H](OC(C)=O)/C=C/[C@@](C)(O)C(=O)[C@@H](C)C/C=C/[C@H]3[C@@H]1O` [CYTOCHALASIN D]: the Activity entry with Bone marrow cell [1], in the data set with Bone marrow cell [3] and with Bone marrow cell [5] was “Non-Toxic” in each case. In addition, the “fold change (FC)” value in the data set on Dendritic cell [2], with Dendritic cell [4] and in the data set on Dendritic cell [7] was 2 throughout. In addition, the result in the data set with Ramos, with Jurkat and in the data set listed under Mus musculus [9] was Active.

Turning to `C=C1[C@@H](C)[C@H]2[C@H](Cc3ccccc3)NC(=O)[C@]23[C@H](OC(C)=O)/C=C/[C@@H](C)C[C@@H](C)C/C=C/[C@H]3[C@@H]1O`, the Activity result in the data set on Bone marrow cell [1], in the data set with Bone marrow cell [3] and in the data set on Bone marrow cell [5] was “Non-Toxic” in each case. In addition, the “fold change (FC)” value in the data set on Dendritic cell [2], in the data set with Dendritic cell [4] and in the data set on Dendritic cell [7] was 2 in each case. Also, the outcome in the data set with Ramos, in the data set on Jurkat and in the data set filed under Mus musculus [9] was Active.
